Test results taken from ChEMBL document CHEMBL1136737, “Virtual screening for submicromolar leads of tRNA-guanine transglycosylase based on a new unexpected binding mode detected by crystal structure analysis” (J Med Chem, 2003).

Target: Queuine tRNA-ribosyltransferase (Zymomonas mobilis (strain ATCC 31821 / ZM4 / CP4), UniProt P28720)
Assay: Inhibitory activity against eubacterial tRNA guanine transglycosylase (TGT) from Zymomonas mobilis

Queuine tRNA-ribosyltransferase, sequence (P28720 whole entry): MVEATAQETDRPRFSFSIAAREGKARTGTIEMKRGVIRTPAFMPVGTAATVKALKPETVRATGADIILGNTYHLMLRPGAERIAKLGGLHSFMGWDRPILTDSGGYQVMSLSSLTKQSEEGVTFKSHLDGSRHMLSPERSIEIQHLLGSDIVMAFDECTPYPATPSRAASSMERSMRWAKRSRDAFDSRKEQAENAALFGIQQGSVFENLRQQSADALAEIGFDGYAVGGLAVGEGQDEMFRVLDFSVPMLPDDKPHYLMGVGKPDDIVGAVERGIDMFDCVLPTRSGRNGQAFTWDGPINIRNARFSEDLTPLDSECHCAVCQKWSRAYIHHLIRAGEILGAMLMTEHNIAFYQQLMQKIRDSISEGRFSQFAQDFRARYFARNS

Row | Structure (SMILES) | Ki
1 | NNC(=O)c1cc2cc(F)ccc2[nH]1 | 72 µM
2 | Nc1nc(O)c2[nH]c(N3CCCCC3)nc2n1 | 37 µM
3 | Nc1nc2nccnc2c(=O)[nH]1 [PTERINE] | 0.6 µM
4 | Nc1nc2nc(-c3ccccc3)cnc2c(=O)[nH]1 | 3.8 µM
5 | Nc1nc(O)c2[nH]c(SCc3ccc(Cl)cc3)nc2n1 | 2.7 µM
6 | Nc1cccc2c(=O)[nH][nH]c(=O)c12 | 36 µM
7 | Nc1c2c(O)nc(O)cc2nn1CCO | 8.1 µM
8 | Nc1[nH]nc2nc(-c3ccccc3)[nH]c(=O)c12 | 249 µM
9 | Cc1cnc2nc(N)nc(O)c2n1 | 0.25 µM
10 | Cc1ccc2[nH]c3nnc(N)c-3cc2c1 | 156 µM
11 | O=c1[nH][nH]c(=O)c2[nH]cnc12 | 200 µM
12 | O=c1[nH][nH]c(=O)c2c(O)c3sccc3nc12 | 5 µM
13 | Cc1csc2c(O)c3c(=O)[nH][nH]c(=O)c3nc12 | 4.7 µM
